Data taken from article PMC5218480 (PLoS ONE, 2017).

Tested on: MV-4-11 cells
Test: Gene expression microarray analysis (Affymetrix PrimeView) and GSEA
Format: cell-based, human
Parameters: RFU PODN (11730768_x_at) / Fold change /veh PODN (11730768_x_at) / RFU LINC00158 (11744669_a_at) / Fold change /veh LINC00158 (11744669_a_at) / RFU DUSP10 (11751237_a_at) / Fold change /veh DUSP10 (11751237_a_at) / RFU ID3 (11757404_x_at) / Fold change /veh ID3 (11757404_x_at) / RFU PLEKHG5 (11737974_s_at) / Fold change /veh PLEKHG5 (11737974_s_at) / RFU LRRC4B (11730491_at) / Fold change /veh LRRC4B (11730491_at) / RFU GIMAP4 (11747438_a_at) / Fold change /veh GIMAP4 (11747438_a_at) / RFU KRT8 (11758183_x_at) / Fold change /veh KRT8 (11758183_x_at) / RFU CNN1 (11734310_a_at) / Fold change /veh CNN1 (11734310_a_at) / RFU VPS37D (11726825_at) / Fold change /veh VPS37D (11726825_at) / RFU C10orf10 (11716522_x_at) / Fold change /veh C10orf10 (11716522_x_at) / RFU KIR2DL2 /// KIR2DL4 /// KIR2DL5A /// KIR2DL5B /// KIR2DS1 /// KIR2DS2 /// KIR2DS3 /// KIR2DS4 /// KIR3DL3 /// KIR3DL3 /// KIR3DS1 (11738374_at) / Fold change /veh KIR2DL2 /// KIR2DL4 /// KIR2DL5A /// KIR2DL5B /// KIR2DS1 /// KIR2DS2 /// KIR2DS3 /// KIR2DS4 /// KIR3DL3 /// KIR3DL3 /// KIR3DS1 (11738374_at) / RFU C1QL1 (11718748_at) / Fold change /veh C1QL1 (11718748_at) / RFU TMPRSS4 (11747572_a_at) / Fold change /veh TMPRSS4 (11747572_a_at) / RFU HAMP (11756126_x_at) / Fold change /veh HAMP (11756126_x_at) / RFU RNFT2 (11725882_a_at) / Fold change /veh RNFT2 (11725882_a_at) / RFU NR4A2 (11747474_a_at) / Fold change /veh NR4A2 (11747474_a_at) / RFU ABCC12 (11746883_a_at) / Fold change /veh ABCC12 (11746883_a_at) / RFU TMEM136 (11760407_x_at) / Fold change /veh TMEM136 (11760407_x_at) / RFU CLDN22 /// WWC2 (11732394_at) / Fold change /veh CLDN22 /// WWC2 (11732394_at) / RFU HLA-DPB1 (11760878_x_at) / Fold change /veh HLA-DPB1 (11760878_x_at) / RFU SPINT1 (11716480_a_at) / Fold change /veh SPINT1 (11716480_a_at) / RFU GAP43 (11754022_s_at) / Fold change /veh GAP43 (11754022_s_at) / RFU A4GNT (11735810_at) / Fold change /veh A4GNT (11735810_at) / RFU PRB3 (11715151_x_at) / Fold change /veh PRB3 (11715151_x_at) / RFU TUBB4B (11761932_at) / Fold change /veh TUBB4B (11761932_at) / RFU CAPN14 (11732068_a_at) / Fold change /veh CAPN14 (11732068_a_at) / RFU TMCC2 (11721928_a_at) / Fold change /veh TMCC2 (11721928_a_at) / RFU IRGQ (11745062_a_at) / Fold change /veh IRGQ (11745062_a_at) / RFU FAM174B (11720279_a_at) / Fold change /veh FAM174B (11720279_a_at) / RFU TMPRSS4 (11748680_a_at) / Fold change /veh TMPRSS4 (11748680_a_at) / RFU FAM212B (11763350_a_at) / Fold change /veh FAM212B (11763350_a_at) / RFU PLEKHG5 (11743358_a_at) / Fold change /veh PLEKHG5 (11743358_a_at) / RFU ZSCAN30 (11745921_a_at) / Fold change /veh ZSCAN30 (11745921_a_at) / RFU CMKLR1 (11741424_a_at) / Fold change /veh CMKLR1 (11741424_a_at) / RFU LOC101060620 /// MAPK8IP1 (11723275_at) / Fold change /veh LOC101060620 /// MAPK8IP1 (11723275_at) / RFU SPTSSB (11747773_x_at) / Fold change /veh SPTSSB (11747773_x_at) / RFU PRSS12 (11739890_at) / Fold change /veh PRSS12 (11739890_at) / RFU BIN1 (11741810_x_at) / Fold change /veh BIN1 (11741810_x_at) / RFU WNT11 (11732464_a_at) / Fold change /veh WNT11 (11732464_a_at) / RFU C10orf10 (11716521_a_at) / Fold change /veh C10orf10 (11716521_a_at) / RFU C5orf56 (11738089_at) / Fold change /veh C5orf56 (11738089_at) / RFU CYB561 (11721691_x_at) / Fold change /veh CYB561 (11721691_x_at) / RFU ANKRD19P (11752326_a_at) / Fold change /veh ANKRD19P (11752326_a_at) / RFU OR2T12 /// OR2T33 /// OR2T8 (11738714_s_at) / Fold change /veh OR2T12 /// OR2T33 /// OR2T8 (11738714_s_at) / RFU VCAN (11748164_a_at) / Fold change /veh VCAN (11748164_a_at) / RFU JSRP1 (11732532_at) / Fold change /veh JSRP1 (11732532_at) / RFU KRTAP10-11 (11738290_x_at) / Fold change /veh KRTAP10-11 (11738290_x_at) / RFU MYO3A (11730013_a_at) / Fold change /veh MYO3A (11730013_a_at) / RFU EBF3 (11725865_a_at) / Fold change /veh EBF3 (11725865_a_at) / RFU CAMK2N1 (11719241_x_at) / Fold change /veh CAMK2N1 (11719241_x_at) / RFU C5orf56 (11738088_a_at) / Fold change /veh C5orf56 (11738088_a_at) / RFU OLFML3 (11715873_a_at) / Fold change /veh OLFML3 (11715873_a_at) / RFU LOC100653217 /// NTM (11731650_a_at) / Fold change /veh LOC100653217 /// NTM (11731650_a_at) / RFU MAPK11 (11762145_a_at) / Fold change /veh MAPK11 (11762145_a_at) / RFU FIZ1 (11724087_x_at) / Fold change /veh FIZ1 (11724087_x_at) / RFU OASL (11726364_x_at) / Fold change /veh OASL (11726364_x_at) / RFU SOX15 (11748057_x_at) / Fold change /veh SOX15 (11748057_x_at) / RFU CD79A (11719716_a_at) / Fold change /veh CD79A (11719716_a_at) / RFU HIST1H1D (11736915_at) / Fold change /veh HIST1H1D (11736915_at) / RFU CASKIN2 (11723855_a_at) / Fold change /veh CASKIN2 (11723855_a_at) / RFU LOC730098 (11760151_x_at) / Fold change /veh LOC730098 (11760151_x_at) / RFU OR4N2 (11742367_at) / Fold change /veh OR4N2 (11742367_at) / RFU PRRT2 (11749266_a_at) / Fold change /veh PRRT2 (11749266_a_at) / RFU SNX32 (11753110_a_at) / Fold change /veh SNX32 (11753110_a_at) / RFU CDHR5 (11726645_a_at) / Fold change /veh CDHR5 (11726645_a_at) / RFU RCAN1 (11760418_a_at) / Fold change /veh RCAN1 (11760418_a_at) / RFU FAM167A (11723789_a_at) / Fold change /veh FAM167A (11723789_a_at) / RFU FAM26E (11764081_at) / Fold change /veh FAM26E (11764081_at) / RFU ISYNA1 (11749810_s_at) / Fold change /veh ISYNA1 (11749810_s_at) / RFU ACY1 (11761880_at) / Fold change /veh ACY1 (11761880_at) / RFU 11764098_at / Fold change /veh 11764098_at / RFU SAMD14 (11745864_x_at) / Fold change /veh SAMD14 (11745864_x_at) / RFU NPB (11741838_a_at) / Fold change /veh NPB (11741838_a_at) / RFU TMPRSS6 (11731388_a_at) / Fold change /veh TMPRSS6 (11731388_a_at) / RFU KRTAP10-2 (11738614_at) / Fold change /veh KRTAP10-2 (11738614_at) / RFU ARHGAP8 /// PRR5-ARHGAP8 (11727945_x_at) / Fold change /veh ARHGAP8 /// PRR5-ARHGAP8 (11727945_x_at) / RFU KRTAP5-7 /// NADSYN1 (11734609_at) / Fold change /veh KRTAP5-7 /// NADSYN1 (11734609_at) / RFU RASL12 (11751679_a_at) / Fold change /veh RASL12 (11751679_a_at) / RFU CDKN2B (11736163_a_at) / Fold change /veh CDKN2B (11736163_a_at) / RFU PRF1 (11729649_at) / Fold change /veh PRF1 (11729649_at) / RFU, ZNF638 /// ZNF638-IT1 / Fold change vs veh, ZNF638 /// ZNF638-IT1 / RFU, PANK3 / Fold change vs veh, PANK3 / RFU, SH3YL1 / Fold change vs veh, SH3YL1 / RFU, ZEB2 / Fold change vs veh, ZEB2 / RFU, NRIP1 / Fold change vs veh, NRIP1 / RFU, PTTG1IP / Fold change vs veh, PTTG1IP / RFU, CAPN2 / Fold change vs veh, CAPN2 / RFU, MED14 / Fold change vs veh, MED14 / RFU, SNORA58 / Fold change vs veh, SNORA58 / RFU, C1orf63 / Fold change vs veh, C1orf63 / RFU, LRRFIP1 / Fold change vs veh, LRRFIP1 / RFU, NDUFAF7 / Fold change vs veh, NDUFAF7 / RFU, SLC12A2 / Fold change vs veh, SLC12A2 / RFU, IBTK / Fold change vs veh, IBTK / RFU, ESF1 / Fold change vs veh, ESF1 / Fold change vs veh, TMEM50B / RFU, TAOK1 / Fold change vs veh, TAOK1 / RFU, ACBD3 / Fold change vs veh, ACBD3 / RFU, TMA16 / Fold change vs veh, TMA16 / RFU, RWDD3 / Fold change vs veh, RWDD3 / RFU, BCAT1 / Fold change vs veh, BCAT1 / RFU, EDEM3 / Fold change vs veh, EDEM3 / RFU, TMEM33 / Fold change vs veh, TMEM33 / RFU, WDR75 / Fold change vs veh, WDR75 / RFU, AHCTF1 / Fold change vs veh, AHCTF1 / RFU, TFRC / Fold change vs veh, TFRC / RFU, ZDHHC17 / Fold change vs veh, ZDHHC17 / RFU, NOM1 / Fold change vs veh, NOM1 / RFU, ARL8B / Fold change vs veh, ARL8B / RFU, ZBTB11 / Fold change vs veh, ZBTB11 / RFU, TAMM41 / Fold change vs veh, TAMM41 / RFU, KIAA1704 /// LOC100996395 / Fold change vs veh, KIAA1704 /// LOC100996395 / RFU, ING1 / Fold change vs veh, ING1 / RFU, TRMT61B / Fold change vs veh, TRMT61B / RFU, FUBP3 / Fold change vs veh, FUBP3 / RFU, TP53 / Fold change vs veh, TP53 / RFU, TNKS2 / Fold change vs veh, TNKS2 / RFU, ZFP14 / Fold change vs veh, ZFP14 / RFU, ACTR2 / Fold change vs veh, ACTR2 / RFU, PPP3R1 / Fold change vs veh, PPP3R1 / RFU, PIK3R1 / Fold change vs veh, PIK3R1 / RFU, HNRNPA1 / Fold change vs veh, HNRNPA1 / RFU, RNF170 / Fold change vs veh, RNF170 / RFU, ZNF28 / Fold change vs veh, ZNF28 / RFU, RNGTT / Fold change vs veh, RNGTT / RFU, OGT / Fold change vs veh, OGT / RFU, BRD1 / Fold change vs veh, BRD1 / RFU, MARS / Fold change vs veh, MARS / RFU, ZNF655 / Fold change vs veh, ZNF655 / RFU, FAHD1 / Fold change vs veh, FAHD1 / RFU, BDP1 / Fold change vs veh, BDP1 / RFU, LRRCC1 / Fold change vs veh, LRRCC1 / RFU, ARID1A / Fold change vs veh, ARID1A / RFU, ZNF146 / Fold change vs veh, ZNF146 / RFU, ZNF330 / Fold change vs veh, ZNF330 / RFU, GPN3 / Fold change vs veh, GPN3 / RFU, C9orf123 / Fold change vs veh, C9orf123 / RFU, N4BP2L2 / Fold change vs veh, N4BP2L2 / RFU, ARFIP1 / Fold change vs veh, ARFIP1 / RFU, FAM179B / Fold change vs veh, FAM179B / RFU, BCL10 / Fold change vs veh, BCL10 / RFU, UHRF1BP1L / Fold change vs veh, UHRF1BP1L / RFU, BET1 / Fold change vs veh, BET1 / RFU, CNOT2 / Fold change vs veh, CNOT2 / RFU, ZNF268 / Fold change vs veh, ZNF268 / Fold change vs veh, ZNF507 / RFU, DGCR2 / Fold change vs veh, DGCR2 / RFU, WDSUB1 / Fold change vs veh, WDSUB1 / Fold change vs veh, HSP90B1 /// MIR3652 / RFU, ADSS / Fold change vs veh, ADSS / RFU, GK / Fold change vs veh, GK / RFU, ZNF148 / Fold change vs veh, ZNF148 / RFU, TAF9 / Fold change vs veh, TAF9 / RFU, SLC1A5 / Fold change vs veh, SLC1A5 / RFU, SLMO2 / Fold change vs veh, SLMO2 / RFU, ABCC4 / Fold change vs veh, ABCC4 / RFU, LOC101060439 /// RAP1B / Fold change vs veh, LOC101060439 /// RAP1B / RFU, RFX7 / Fold change vs veh, RFX7 / RFU, GTPBP10 / Fold change vs veh, GTPBP10 / RFU, CNEP1R1 / Fold change vs veh, CNEP1R1 / RFU, BIVM-ERCC5 /// ERCC5 / Fold change vs veh, BIVM-ERCC5 /// ERCC5 / RFU, ILF3 / Fold change vs veh, ILF3 / RFU 11762660_at / Fold change /veh 11762660_at / RFU VCAN (11757783_s_at) / Fold change /veh VCAN (11757783_s_at) / RFU DDX43 (11728927_at) / Fold change /veh DDX43 (11728927_at) / RFU KRT8 (11758188_x_at) / Fold change /veh KRT8 (11758188_x_at) / RFU NKD1 (11759106_at) / Fold change /veh NKD1 (11759106_at) / RFU SRD5A1 (11742802_a_at) / Fold change /veh SRD5A1 (11742802_a_at) / RFU TPSAB1 /// TPSB2 (11721975_s_at) / Fold change /veh TPSAB1 /// TPSB2 (11721975_s_at) / RFU GSTM3 (11746129_a_at) / Fold change /veh GSTM3 (11746129_a_at) / RFU IL23R (11737362_x_at) / Fold change /veh IL23R (11737362_x_at) / RFU TMEM51 (11727254_a_at) / Fold change /veh TMEM51 (11727254_a_at) / RFU PIWIL2 (11732686_x_at) / Fold change /veh PIWIL2 (11732686_x_at) / RFU ORM1 (11744905_x_at) / Fold change /veh ORM1 (11744905_x_at) / RFU CCDC152 (11743942_at) / Fold change /veh CCDC152 (11743942_at) / RFU ECM1 (11717891_a_at) / Fold change /veh ECM1 (11717891_a_at) / RFU IL23R (11748794_a_at) / Fold change /veh IL23R (11748794_a_at) / RFU TNFAIP8L3 (11732012_x_at) / Fold change /veh TNFAIP8L3 (11732012_x_at) / RFU MBOAT4 (11741988_at) / Fold change /veh MBOAT4 (11741988_at) / RFU 11764193_at / Fold change /veh 11764193_at / RFU TMEM53 (11763286_at) / Fold change /veh TMEM53 (11763286_at) / RFU MAGEB2 (11727129_at) / Fold change /veh MAGEB2 (11727129_at) / RFU TMEM200A (11744735_a_at) / Fold change /veh TMEM200A (11744735_a_at) / RFU CCDC152 (11751479_a_at) / Fold change /veh CCDC152 (11751479_a_at) / RFU FAM211A (11726209_a_at) / Fold change /veh FAM211A (11726209_a_at) / RFU RGS16 (11746705_a_at) / Fold change /veh RGS16 (11746705_a_at) / RFU VCAN (11755009_s_at) / Fold change /veh VCAN (11755009_s_at) / RFU RHOB (11743442_s_at) / Fold change /veh RHOB (11743442_s_at) / RFU RGS16 (11720943_a_at) / Fold change /veh RGS16 (11720943_a_at) / RFU RGS16 (11720944_at) / Fold change /veh RGS16 (11720944_at) / RFU, VPS4B / Fold change vs veh, VPS4B / RFU, CREB1 / Fold change vs veh, CREB1 / RFU, DNAJC13 / Fold change vs veh, DNAJC13 / RFU, GNAQ / Fold change vs veh, GNAQ / RFU, CDK5R1 / Fold change vs veh, CDK5R1 / RFU, ZRANB3 / Fold change vs veh, ZRANB3 / RFU, CUL4A / Fold change vs veh, CUL4A / RFU, CCNY / Fold change vs veh, CCNY / RFU, UFL1 / Fold change vs veh, UFL1 / RFU, COG3 / Fold change vs veh, COG3 / RFU, DIAPH2 / Fold change vs veh, DIAPH2 / RFU, SKA2 / Fold change vs veh, SKA2 / RFU, AFF3 / Fold change vs veh, AFF3 / RFU, LMF1 / Fold change vs veh, LMF1 / RFU, IPO11 / Fold change vs veh, IPO11 / RFU, DFFB / Fold change vs veh, DFFB / RFU, FOXP1 / Fold change vs veh, FOXP1 / RFU, CARD8 / Fold change vs veh, CARD8 / RFU, STRN3 / Fold change vs veh, STRN3 / RFU, ADK / Fold change vs veh, ADK / RFU, RASSF2 / Fold change vs veh, RASSF2 / RFU, WIPF1 / Fold change vs veh, WIPF1 / RFU, LARP1B / Fold change vs veh, LARP1B / RFU, RASA1 / Fold change vs veh, RASA1 / RFU, RB1 / Fold change vs veh, RB1 / RFU, PPFIA1 / Fold change vs veh, PPFIA1 / RFU, MAT2A / Fold change vs veh, MAT2A / RFU, CCT5 / Fold change vs veh, CCT5 / RFU, WDR92 / Fold change vs veh, WDR92 / RFU, CUX1 / Fold change vs veh, CUX1 / RFU, TTC7A / Fold change vs veh, TTC7A / RFU, TMEM135 / Fold change vs veh, TMEM135 / RFU, DEPTOR / Fold change vs veh, DEPTOR / RFU, CPM / Fold change vs veh, CPM / RFU, DNAJB6 / Fold change vs veh, DNAJB6 / RFU, CACNA2D3 / Fold change vs veh, CACNA2D3 / RFU, DTX4 / Fold change vs veh, DTX4 / RFU, TFCP2 / Fold change vs veh, TFCP2 / RFU, GMCL1 /// GMCL1P1 / Fold change vs veh, GMCL1 /// GMCL1P1 / RFU, AEBP2 / Fold change vs veh, AEBP2 / RFU, SNHG1 /// SNORD22 /// SNORD25 /// SNORD26 /// SNORD27 /// SNORD28 /// SNORD29 /// SNORD31 / Fold change vs veh, SNHG1 /// SNORD22 /// SNORD25 /// SNORD26 /// SNORD27 /// SNORD28 /// SNORD29 /// SNORD31 / Fold change (Aza/veh), C12orf56 (ProbeSet 11735607_a_at) / Fold change (ACY-1035/veh), C12orf56 (ProbeSet 11735607_a_at) / Fold change (Aza/veh), FGFR1OP (ProbeSet 11751329_s_at) / Fold change (ACY-1035/veh), FGFR1OP (ProbeSet 11751329_s_at) / Fold change (Aza/veh), VPS36 (ProbeSet 11739960_a_at) / Fold change (ACY-1035/veh), VPS36 (ProbeSet 11739960_a_at) / RFU SYPL1 (11715823_x_at) / Fold change /veh SYPL1 (11715823_x_at) / RFU IGFBP7 (11715501_s_at) / Fold change /veh IGFBP7 (11715501_s_at) / RFU REEP3 (11722064_at) / Fold change /veh REEP3 (11722064_at) / RFU IGLL1 (11728026_x_at) / Fold change /veh IGLL1 (11728026_x_at): dose or concentration left out as unconfirmed
Conditions: ProbeSet 11740011_at; LIST B

Nc1ncn([C@@H]2O[C@H](CO)[C@@H](O)[C@H]2O)c(=O)n1 [azacitidine]
RFU, ZFP14: 67.74 RFU
